# Source: patent publication US9708336B2, “Metallo-beta-lactamase inhibitors” (priority 2014, dated 2017)
# Read-outs that look alike come from different tables or passages of the source.
# Legend:
# IMP-1 = IMP-1 (Serratia marcescens, UniProt P52699); assay: biochemical; type: biochemical; conditions: read-out: IMP-1 IC50
# NDM-1 = NDM-1 (Klebsiella pneumoniae, UniProt C7C422); assay: biochemical; type: biochemical; conditions: read-out: NDM-1 IC50
# VIM-1 = VIM-1 (Pseudomonas aeruginosa (strain ATCC 15692 / DSM 22644 / CIP 104116 / JCM 14847 / LMG 12228 / 1C / PRS 101 / PAO1), UniProt A0A0F7KYQ8); assay: Enzyme activity: determination of IC50, fluorescence assay with CCF2-FA substrate (VIM-1); type: biochemical
# [1] = tested on: Escherichia coli expressing NDM-1 (CLB30016); assay: Antibiotic potentiation activity: synergistic concentration (MITC95) with imipenem, OD600 growth; type: cell-based; conditions: for Escherichia coli expressing NDM-1 (CLB 30016) MITC95: concentration giving 95% inhibition of bacterial growth
# In short: (§1)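 Clinical MBL-producing strains (E. coli NDM-1, S. marcescens IMP-1, K. pneumoniae VIM-1) from overnight plates were diluted 1:100 into 1.1×CAMHB. Compound was tested with imipenem at 4 μg/ml (optionally 1 μg/ml) or without it. After 22–24 h at 35 °C, growth was read as OD600.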
# [2] = tested on: Serratia marcescens expressing IMP-1 (CL5741); assay: as above; type: cell-based; conditions: for Serratia marcescens expressing IMP-1 (CL5741) MITC95: concentration giving 95% inhibition of bacterial growth
# In short: as §1
# [3] = tested on: Klebsiella pneumoniae expressing VIM-1 (IHMA599644); assay: as above; type: cell-based; conditions: for Klebsiella pneumoniae expressing VIM-1 (IHMA 599644) MITC95: concentration giving 95% inhibition of bacterial growth
# In short: as §1
# [4] = IMP-1 enzyme, CCF2-FA fluorescence assay
# [5] = NDM-1 enzyme, CCF2-FA fluorescence assay
# [6] = VIM-1 enzyme, CCF2-FA fluorescence assay, read-out: VIM-1 IC50
# [7] = Escherichia coli expressing NDM-1 (CLB30016), 95% growth inhibition
# [8] = Serratia marcescens expressing IMP-1 (CL5741), 95% growth inhibition
# [9] = Klebsiella pneumoniae expressing VIM-1 (IHMA599644), 95% growth inhibition
# [10] = fluorescence assay with CCF2-FA substrate
# [11] = fluorescence assay with CCF2-FA substrate, read-out: VIM-1 IC50
# [12] = CLB30016 (NDM-1), 95% inhibition of bacterial growth
# [13] = CL5741 (IMP-1), 95% inhibition of bacterial growth
# [14] = IHMA599644 (VIM-1), 95% inhibition of bacterial growth
# [15] = IMP-1 enzyme, CCF2-FA substrate
# [16] = NDM-1 enzyme, CCF2-FA substrate
# [17] = VIM-1 enzyme, CCF2-FA substrate, read-out: VIM-1 IC50
# [18] = (CLB30016, NDM-1), 95% growth inhibition
# [19] = Serratia marcescens CL5741 (IMP-1), 95% growth inhibition
# [20] = Klebsiella pneumoniae IHMA599644 (VIM-1), 95% growth inhibition
# IMP-1, sequence (P52699 whole entry, looked up): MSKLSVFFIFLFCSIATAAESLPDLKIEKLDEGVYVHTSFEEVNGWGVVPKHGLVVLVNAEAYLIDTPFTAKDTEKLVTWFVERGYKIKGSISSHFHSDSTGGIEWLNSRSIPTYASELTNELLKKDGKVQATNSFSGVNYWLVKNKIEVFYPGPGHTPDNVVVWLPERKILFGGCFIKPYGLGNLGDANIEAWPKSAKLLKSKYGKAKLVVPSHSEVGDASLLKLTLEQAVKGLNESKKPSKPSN
# NDM-1, sequence (C7C422 whole entry, looked up, species assumed): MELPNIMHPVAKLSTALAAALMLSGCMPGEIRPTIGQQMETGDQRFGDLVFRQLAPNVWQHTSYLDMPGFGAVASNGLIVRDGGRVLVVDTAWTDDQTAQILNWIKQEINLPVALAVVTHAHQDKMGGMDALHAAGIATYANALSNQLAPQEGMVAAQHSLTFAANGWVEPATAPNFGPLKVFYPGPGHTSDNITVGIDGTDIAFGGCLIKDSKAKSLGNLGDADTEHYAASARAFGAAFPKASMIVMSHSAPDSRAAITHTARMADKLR
SMILES,IC50 (IMP-1; [10]) [nM],IC50 (NDM-1; [10]) [nM],IC50 (VIM-1; [11]) [nM],IC50 (IMP-1; [15]) [nM],IC50 (NDM-1; [16]) [nM],IC50 (VIM-1; [17]) [nM],"Escherichia coli MITC95 [1, 18] [µM]","Serratia marcescens MITC95 [2, 19] [µM]","Klebsiella pneumoniae MITC95 [3, 20] [µM]",further results
"N=C(N)N1Cc2ccc(-c3ccc(C(F)(F)F)c(S(N)(=O)=O)c3-c3nn[nH]n3)cc2C1 [Example 446, 5-(3-sulfamoyl-2-(2H-tetrazol-5-yl)-4-(trifluoromethyl)phenyl)isoindoline-2-carboximidamide]",–,–,–,–,–,–,–,–,–,"IC50 (IMP-1; [4]): 19.4 nM; IC50 (NDM-1; [5]): 15.4 nM; IC50 (VIM-1; [6]): 0.252 nM; Escherichia coli MITC95 [1, 7]: 1.563 µM; Serratia marcescens MITC95 [2, 8]: 0.3906 µM; Klebsiella pneumoniae MITC95 [3, 9]: 1.563 µM"
"Nc1[nH]nc2cc(-c3cccc(S(N)(=O)=O)c3-c3nnn[nH]3)ccc12 [Example 131, 3-(3-amino-2H-indazol-6-yl)-2-(1H-tetrazol-5-yl)benzenesulfonamide]",187,0.7,16.9,–,–,–,–,–,–,Escherichia coli expressing NDM-1 (CLB 30016) MITC95 [1]: 0.7813 µM; Serratia marcescens expressing IMP-1 (CL5741) MITC95 [2]: 3.125 µM; Klebsiella pneumoniae expressing VIM-1 (IHMA 599644) MITC95 [3]: 3.125 µM
"NS(=O)(=O)c1c(C(F)(F)F)ccc(N2CCC3(CCCNC3)CC2)c1-c1nnn[nH]1 [Example 776, 3-(2,9-diazaspiro[5.5]undec-9-yl)-2-(1H-tetrazol-5-yl)-6-(trifluoromethyl) benzenesulfonamide]",55.9,15.2,15.9,–,–,–,–,–,–,"Escherichia coli MITC95 [1, 12]: 25 µM; Serratia marcescens MITC95 [2, 13]: 50 µM; Klebsiella pneumoniae MITC95 [3, 14]: 25 µM"
"NCC1CCC(N[C@H]2CC[C@H](c3ccc(C(F)(F)F)c(S(N)(=O)=O)c3-c3nnn[nH]3)CC2)CC1 (stereo partly drawn) [Example 704, 3-(4-{[4-(aminomethyl)cyclohexyl]amino}cyclohexyl)-2-(1H-tetrazol-5-yl)-6-(trifluoromethyl)benzene sulfonamide]",–,–,–,51.6,14.8,7.17,1.563,6.25,6.25,–
"CS(=O)(=O)Nc1ccc(-c2ccc(C(F)(F)F)c(S(N)(=O)=O)c2-c2nn[nH]n2)cc1 [Example 274, 4′-(methylsulfonamido)-2-(2H-tetrazol-5-yl)-4-(trifluoromethyl)-[1,1′-biphenyl]-3-sulfonamide]",–,–,–,–,–,–,–,–,–,"IC50 (IMP-1; [4]): 0.637 nM; IC50 (NDM-1; [5]): 0.637 nM; IC50 (VIM-1; [6]): 0.637 nM; Escherichia coli MITC95 [1, 7]: 0.7813 µM; Serratia marcescens MITC95 [2, 8]: 0.1953 µM; Klebsiella pneumoniae MITC95 [3, 9]: 4.688 µM"
"NS(=O)(=O)c1c(CC2CNC2)ccc(-c2cnc3ccccn23)c1-c1nn[nH]n1 [Example 546, 6-(azetidin-3-ylmethyl)-3-(imidazo[1,2-a]pyridin-3-yl)-2-(2H-tetrazol-5-yl)benzenesulfonamide]",–,–,–,178,33.8,38.6,1.563,12.5,12.5,–
"NS(=O)(=O)c1c(C(F)(F)F)ccc(-c2ccc(C3CCN(CC4CCNC4)CC3)cc2)c1-c1nnn[nH]1 (stereo not drawn) [Example 795, 4′-[1-(pyrrolidin-3-ylmethyl)piperidin-4-yl]-2-(1H-tetrazol-5-yl)-4-(trifluoromethyl)biphenyl-3-sulfonamide]",1.1,5.23,6.57,–,–,–,–,–,–,"Escherichia coli MITC95 [1, 12]: 1.563 µM; Serratia marcescens MITC95 [2, 13]: 3.125 µM; Klebsiella pneumoniae MITC95 [3, 14]: 25 µM"
"Nc1nc2c(-c3ccc(CCCO)c(S(N)(=O)=O)c3-c3nn[nH]n3)cccc2s1 [Example 533, 3-(2-Aminobenzo[d]thiazol-4-yl)-6-(3-hydroxypropyl)-2-(2H-tetrazol-5-yl)benzenesulfonamide]",–,–,–,16.6,0.878,2.88,3.125,12.5,12.5,–
"CC(C)(C)Cc1cccc(S(N)(=O)=O)c1-c1nnn[nH]1 [Example 159, 3-neopentyl-2-(1H-tetrazol-5-yl)benzenesulfonamide]",526,34,3390,–,–,–,–,–,–,Escherichia coli expressing NDM-1 (CLB 30016) MITC95 [1]: 3.125 µM; Serratia marcescens expressing IMP-1 (CL5741) MITC95 [2]: 18.75 µM; Klebsiella pneumoniae expressing VIM-1 (IHMA 599644) MITC95 [3]: >200 µM
"NS(=O)(=O)c1nccc(N2CCC(Cn3ccnc3)CC2)c1-c1nnn[nH]1 [Example 233, 4-[4-(1H-imidazol-1-ylmethyl)piperidin-1-yl]-3-(1H-tetrazol-5-yl)pyridine-2-sulfonamide]",195,60.9,97.6,–,–,–,–,–,–,Escherichia coli expressing NDM-1 (CLB 30016) MITC95 [1]: 0.7813 µM; Serratia marcescens expressing IMP-1 (CL5741) MITC95 [2]: 6.25 µM; Klebsiella pneumoniae expressing VIM-1 (IHMA 599644) MITC95 [3]: 37.5 µM
"Nc1nccc2ccc(-c3cccc(S(N)(=O)=O)c3-c3nnn[nH]3)cc12 [Example 400, 3-(1-aminoisoquinolin-7-yl)-2-(1H-tetrazol-5-yl)benzenesulfonamide]",–,–,–,–,–,–,–,–,–,"IC50 (IMP-1; [4]): 166 nM; IC50 (NDM-1; [5]): 1.64 nM; IC50 (VIM-1; VIM-1 IC50, VIM-1 enzyme, CCF2-FA fluorescence assay): 18.4 nM; Escherichia coli MITC95 [1, 7]: 0.25 µM; Serratia marcescens MITC95 [2, 8]: 12.5 µM; Klebsiella pneumoniae MITC95 [3, 9]: 6.25 µM"
"NS(=O)(=O)c1cccc(-c2cnc3nc(C(F)(F)F)ccn23)c1-c1nnn[nH]1 [Example 650, 2-(1H-tetrazol-5-yl)-3-[7-(trifluoromethyl)imidazo[1,2-a]pyrimidin-3-yl]benzenesulfonamide]",–,–,–,1260,22.1,46.8,1.563,100,50,–
"NS(=O)(=O)c1c(C(F)(F)F)ccc([C@H]2CC[C@@H](C3CCNCC3)CC2)c1-c1nnn[nH]1 [Example 831, 3-((1s,4s)-4-(piperidin-4-yl)cyclohexyl)-2-(1H-tetrazol-5-yl)-6-(trifluoromethyl)benzenesulfonamide]",0.892,0.817,2.84,–,–,–,–,–,–,"Escherichia coli MITC95 [1, 12]: 2.344 µM; Serratia marcescens MITC95 [2, 13]: 3.125 µM; Klebsiella pneumoniae MITC95 [3, 14]: 50 µM"
"Nc1nc2c(-c3ccc(CCC(=O)O)c(S(N)(=O)=O)c3-c3nn[nH]n3)cccc2s1 [Example 538, 3-(4-(2-Aminobenzo[d]thiazol-4-yl)-2-sulfamoyl-3-(2H-tetrazol-5-yl)phenyl)propanoic acid]",–,–,–,53.8,1.4,40.3,6.25,50,100,–
"Nc1nc2c(F)cc(-c3ccc(C(F)(F)F)c(S(N)(=O)=O)c3-c3nnn[nH]3)cc2s1 [Example 743, 3-(2-amino-4-fluoro-1,3-benzothiazol-6-yl)-2-(1H-tetrazol-5-yl)-6-(trifluoromethyl)benzenesulfon-amide]",0.901,0.409,0.147,–,–,–,–,–,–,"Escherichia coli MITC95 [1, 12]: 3.125 µM; Serratia marcescens MITC95 [2, 13]: 6.25 µM; Klebsiella pneumoniae MITC95 [3, 14]: 6.25 µM"
"N#Cc1cc(-c2ccc(C(F)(F)F)c(S(N)(=O)=O)c2-c2nnn[nH]2)c2[nH]c(N)nc2c1 [Example 569, 3-(2-amino-5-cyano-1H-benzo[d]imidazol-7-yl)-2-(1H-tetrazol-5-yl)-6-(trifluoromethyl)benzenesulfonamide]",–,–,–,1.62,0.215,0.309,6.25,3.125,6.25,–
"NS(=O)(=O)c1c(C(F)(F)F)ccc([C@H]2CC[C@H](NC3CCC4(CCNCC4)CC3)CC2)c1-c1nnn[nH]1 [Example 689, 3-[4-(3-azaspiro[5.5]undec-9-ylamino)cyclohexyl]-2-(1H-tetrazol-5-yl)-6-(trifluoromethyl)benzene sulfonamide]",–,–,–,52.1,26.8,6.43,6.25,6.25,12.5,–
"NS(=O)(=O)c1c(C(F)(F)F)ccc(-c2cnc3ncccn23)c1-c1nnn[nH]1 [Example 712, 3-imidazo[1,2-a]pyrimidin-3-yl-2-(1H-tetrazol-5-yl)-6-(trifluoromethyl)benzenesulfon-amide]",–,–,–,126,58.7,–,25,100,50,"IC50 (VIM-1; VIM-1 IC50, VIM-1 enzyme, CCF2-FA substrate): 13.6 nM"
